Results reported in patent US9713613B2, “Methods and compositions for the treatment of cancer and related hyperproliferative disorders” (priority 2007, dated 2017).

Key:
3T3-L1 cells = experiment: adipogenesis assay (formation of oil droplets); format: cell-based, mouse; set-up: key: +: The analogues that completely inhibited the formation of oil droplets in cells were scored to be adipogenesis-inhibiting analogues; conditions: formation of oil droplets in cells
Method: The adipogenesis assay was performed as described (Choi et al., 2003).

endogenous SREBPs [1] = experiment: SREBP activation assay (pSRE-Luc luciferase reporter) in CHO-K1 cells; format: cell-based, Chinese hamster
Method: To confirm that fatostatin impairs the function of SREBPs, the ability of endogenous SREBPs to activate transcription of an SREBP-responsive reporter gene was measured in CHO-K1 cells in the presence or absence of fatostatin (FIG. 18A).
Luciferase reporter assay. On day 0, CHO-K1 cells were plated out onto a 96-well plate in medium A (a 1:1 mixture of Ham's F-12 medium and Dulbecco's modified Eagle's medium, with 5% fetal bovine serum, 100 units/mL penicillin, and 100 μg/mL streptomycin sulfate). On day 2, the cells were transiently co-transfected with pSRE-Luc (an SRE-1-driven luciferase reporter construct) (Hua et al., 1995) and pAc-β-gal (β-gal reporter in which the expression of β-gal is controlled by an actin promoter), using Lipofectamine reagent (Invitrogen). After incubation for 5 h, the cells were washed with phosphate-buffered saline (PBS), and then incubated, in the absence or presence of fatostatin, in medium B (a 1:1 mixture of Ham's F-12 medium and Dulbecco's modified Eagle's medium, with 5% lipid-depleted serum, 100 units/mL penicillin, 100 μg/mL streptomycin sulfate, […], and 50 mM sodium mevalonate). After 20 h of incubation, the cells in each well were lysed, and aliquots were used to measure luciferase and β-galactosidase activities. Luciferase activity was normalized by the activity of β-galactosidase. For overexpression of the N-terminal matured form of SREBP-1c, pCMV-SREBP-1c(1-436) was co-transfected with pSRE-Luc and pAc-β-gal.
Standard SREBP activation assays were performed on the exemplary compounds identified in Table 4 as per the method for Fatostatin A in Example 1. The ability of endogenous SREBPs to activate transcription of an SREBP-responsive reporter gene was measured in the presence or absence of compounds 45-55 and 19 (FIG. 28), compounds 56-61 and 19 (FIG. 29) and compounds 62-66 (FIG. 30) at 5 μM in CHOK1 cells. […] The inhibitory concentrations of compounds 53 (FIG. 31) and compounds 58 and 61 (FIG. 32) were determined.

endogenous SREBPs [2] = experiment: Luciferase reporter assay (pSRE-Luc, normalized by β-gal) in HEK293 cells; format: cell-based, human; set-up: Luc/Gal: dose or concentration left out as unconfirmed
Method: On day 0, HEK293 cells were plated out in triplicate at a density of 5×10^3/well onto a 96-well plate in a Dulbecco's modified Eagle's medium with 10% fetal bovine serum, 100 units/mL penicillin, and 100 μg/mL streptomycin sulfate. On day 2, the cells were transiently co-transfected with the following plasmids by using Lipofectamine reagent (Invitrogen): 0.4 μg/well pSRE-Luc (an SRE-1-driven luciferase reporter construct; Hua et al., 1995 J Biol Chem 270, 29422-7), and 0.1 μg/well a b-gal reporter in which the expression of β-gal is controlled by an actin promoter in a final volume of […]. After incubation for 5 hrs at 37° C., the cells were washed with phosphate-buffered saline and then incubated in 100 μl of Dulbecco's modified Eagle's medium with 10% lipid-depleted serum, […] penicillin, and 100 μg/mL streptomycin sulfate in the absence or presence of fatostatin A. After 20 hrs of incubation, the cells in each well were lysed with 20 μL of 1× Reporter Lysis Buffer (Promega), and aliquots were used for measurement of luciferase (10 μL) and β-galactosidase (10 μL) activities. For luciferase assay, photon production was detected as counts per second in a Wallac 1420 ARVOsx multilabel counter (PerkinElmer). For β-galactosidase assays, hydrolysis of O-nitrophenyl-β-D-galactosidase was measured after incubation for 0.5 h at 37° C. by a microplate reader at the wave length of 405 nm (Tecan). The luciferase activity (counts per second) was normalized by the activity of β-galactosidase (OD units). For overexpression of the N-terminal matured form of SREBP-1c, pCMV-SREBP-1c (1-436) was co-transfected with pSRE-Luc. pSRE-Luc and pCMV-SREBP-1c (1-436) were provided by J. L. Goldstein (University of Texas Southwestern Medical Center). […]

[3] = entries 1, 19-34 (FIG. 16), None = 15.0759

CCCc1cc(-c2nc(-c3ccc(C)cc3)cs2)ccn1 [Compound 1, 2-propyl-4-(4-p-tolylthiazol-2-yl)pyridine]
Inhibition of adipogenesis (3T3-L1 cells): +
activation of the SRE luciferase reporter gene by endogenous SREBPs (endogenous SREBPs [1]; CHO-K1 cells, lipid-free serum): decreased activation of the reporter gene
activation of the SRE-controlled luciferase reporter gene by endogenous SREBPs (endogenous SREBPs [2]; HEK293 cells, lipid-free serum, varied concentrations): decreased in a concentration dependent manner
ability of exogenously expressed mature form of SREBP-1 to activate the reporter gene (endogenous SREBPs [2]; HEK293 cells, pCMV-SREBP-1c + pSRE-Luc): failed to impair
Luc/Gal (endogenous SREBPs [2]; [3]): 7.5537
Luc/Gal (endogenous SREBPs [2]; entries 1, 35-39 (FIG. 17), None = 18): 9.414
Luc/Gal (endogenous SREBPs [2]; entries 1, 40-44 (FIG. 17), None = 8.2181): 3.4437
Luc/Gal (endogenous SREBPs [2]; entries 1-18 (FIG. 15), none = 9.4426): 6.2297

CCCc1cc(-c2nc(-c3ccc(NS(C)(=O)=O)cc3)cs2)ccn1 [Compound 19, N-(4-(2-(2-propylpyridin-4-yl)thiazol-4-yl)phenyl)methanesulfonamide]
Inhibition of adipogenesis (3T3-L1 cells): +
inhibition at 5 µM (endogenous SREBPs [1]; Cricetulus griseus, CHO-K1, 5 μM in CHOK1 cells): ~45%
Luc/Gal (endogenous SREBPs [2]; [3]): 4.1981
